Results: article PMC9103758 (International Journal of Molecular Sciences, 2022)
Entries after “also recorded” stand apart in the source; their conditions may differ.

Assays:
NIH-3T3 cells = assay: Cell viability (MTS/MTT) in NIH-3T3 cells; type: cell-based; details: 24 h, up to/at 30 μM
Experimental: […]. (A) Structure of VI-116. (B) Representative YFP fluorescence traces. The inhibitory effects of VI-116 on VRAC activity were determined using YFP fluorescence assay in LN215 cells. VRAC was activated by application of […] solution for 5 min. (C) Summary of VRAC dose-response (mean ± S.E., n = 4). (D) Summary of VRAC dose−response with 10% FBS (mean ± S.E., n = 4). […].
NIH-3T3 cells were plated on 96-well microplates. After 24 h incubation, cells were treated with VI-116 or DCPIB and incubated for 24 h. The culture medium and the compounds were changed every 12 h. To assess cell proliferation, the cells were incubated with MTS for 1 h. The soluble formazan produced by the cellular reduction of MTS was quantified by measuring the absorbance at 490 nm with an Infinite M200 (Tecan, Grödig, Austria) microplate reader. MTS assay was performed using a CellTiter 96 Aqueous One Solution Cell Proliferation Assay kit (Promega, Madison, WI, USA).

[1] = system: calcium-activated chloride currents in calf pulmonary artery endothelial (CPAE) cells; details: cited from earlier work
hERG = details: 10 μM, Xenopus oocytes overexpressed with hERG; cited from earlier work
[2] = system: ATP-induced intracellular calcium signaling in FRT cells; assay: Intracellular calcium measurement (Fluo-4) in FRT cells; type: cell-based, rat; details: dose-dependent, 100 μM ATP
Experimental: (§1) (A) Representative Fluo4 fluorescence traces from 3 independent experiments in FRT cells. […] (B,C) Representative apical membrane currents from 3–4 independent experiments in FRT cells expressing human ANO1. […] (D) Representative YFP fluorescence traces in FRT cells expressing human ANO2. […] (E) Representative Fluo4 fluorescence traces from 3 independent experiments in FRT cells. Cells were pretreated with DCPIB for 10 min followed by application of 100 μM ATP. (F) Representative apical membrane currents in FRT cells expressing human ANO1.
FRT cells were plated on 96-well black-walled microplates and loaded with Fluo-4 NW according to the manufacturer’s protocol (Invitrogen, Carlsbad, CA, USA). […] The 96-well plates were transferred to a plate reader for fluorescence assay.

hERG K+ channel = target: T1, hERG K+ channel (Homo sapiens, UniProt Q12809); assay: FluxOR thallium flux assay in HEK293T cells expressing hERG; type: cell-based
T1 construct: expressed in transfected cells; called HEK293
T1 sequence (Q12809 whole entry): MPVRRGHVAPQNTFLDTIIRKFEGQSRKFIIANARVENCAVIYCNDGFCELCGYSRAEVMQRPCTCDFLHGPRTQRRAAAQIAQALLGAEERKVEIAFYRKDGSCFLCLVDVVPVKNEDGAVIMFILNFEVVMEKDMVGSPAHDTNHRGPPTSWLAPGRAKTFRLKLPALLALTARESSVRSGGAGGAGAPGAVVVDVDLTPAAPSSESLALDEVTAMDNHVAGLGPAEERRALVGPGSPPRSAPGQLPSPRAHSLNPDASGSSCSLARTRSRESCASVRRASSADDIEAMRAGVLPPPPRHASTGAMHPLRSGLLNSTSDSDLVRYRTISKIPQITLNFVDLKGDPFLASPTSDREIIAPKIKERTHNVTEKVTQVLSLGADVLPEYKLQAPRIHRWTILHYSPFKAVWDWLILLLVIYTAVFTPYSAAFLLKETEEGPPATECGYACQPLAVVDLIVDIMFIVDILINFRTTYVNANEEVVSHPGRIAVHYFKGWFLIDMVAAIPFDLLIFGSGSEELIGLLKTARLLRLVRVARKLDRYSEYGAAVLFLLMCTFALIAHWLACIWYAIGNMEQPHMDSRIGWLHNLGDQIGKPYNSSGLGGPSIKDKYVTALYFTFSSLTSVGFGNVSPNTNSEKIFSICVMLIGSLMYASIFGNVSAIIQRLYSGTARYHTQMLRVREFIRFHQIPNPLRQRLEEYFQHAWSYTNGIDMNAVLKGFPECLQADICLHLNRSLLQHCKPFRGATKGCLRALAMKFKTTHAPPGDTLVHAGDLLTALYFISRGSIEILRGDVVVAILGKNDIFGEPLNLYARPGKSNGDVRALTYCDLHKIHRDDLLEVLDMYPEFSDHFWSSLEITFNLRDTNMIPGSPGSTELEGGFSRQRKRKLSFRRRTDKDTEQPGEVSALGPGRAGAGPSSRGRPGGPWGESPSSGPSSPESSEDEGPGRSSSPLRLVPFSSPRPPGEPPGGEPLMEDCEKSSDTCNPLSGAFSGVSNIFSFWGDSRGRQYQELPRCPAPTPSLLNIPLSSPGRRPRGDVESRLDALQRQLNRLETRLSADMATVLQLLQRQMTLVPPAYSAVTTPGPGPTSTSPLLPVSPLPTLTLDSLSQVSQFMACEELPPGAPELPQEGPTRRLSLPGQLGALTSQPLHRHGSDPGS
Experimental: (C) Summary of dose-response (mean ± S.E., n = 5). […] (F) Summary of dose−response (mean ± S.E., n = 6).
HEK293 cells stably expressing human Kv11.1 (hERG) were cultured in 96-well plates. After 48 h, the cells were incubated at 28 °C for 4 h to increase the membrane expression of hERG. The culture medium was replaced with a 80 μL/well of FluxOR (Invitrogen, Waltham, MA, USA) loading buffer and incubated for 1 h at 37 °C in the dark. After removing the loading buffer, 100 μL of assay buffer was added to each well. […] FluxOR fluorescence (excitation/emission: 490/525 nm) was recorded for 4 s before the addition of 20 μL of stimulus buffer containing thallium ions, and the fluorescence was recorded. FluxOR fluorescence was recorded and analyzed using the FLUOstar Omega microplate reader (BMG Labtech, Ortenberg, Germany) and the MARS Data Analysis Software (BMG Labtech, Ortenberg, Germany). All buffers were prepared according to the manufacturer’s instructions.

ANO1 = target: T2, ANO1 (Homo sapiens, UniProt Q5XXA6, DEL476-501); assay: Apical membrane current of ANO1 in FRT cells expressing human ANO1; type: cell-based; details: 3 μM Eact
T2 construct: expressed in transfected cells; host or cells: Fisher rat thyroid (FRT) cells; The YFP assay uses FRT-ANO1-YFP cells, which also carry the halide sensor
T2 sequence (Q5XXA6 with tags, fused parts or gaps isoform Q5XXA6-5 DEL539-564): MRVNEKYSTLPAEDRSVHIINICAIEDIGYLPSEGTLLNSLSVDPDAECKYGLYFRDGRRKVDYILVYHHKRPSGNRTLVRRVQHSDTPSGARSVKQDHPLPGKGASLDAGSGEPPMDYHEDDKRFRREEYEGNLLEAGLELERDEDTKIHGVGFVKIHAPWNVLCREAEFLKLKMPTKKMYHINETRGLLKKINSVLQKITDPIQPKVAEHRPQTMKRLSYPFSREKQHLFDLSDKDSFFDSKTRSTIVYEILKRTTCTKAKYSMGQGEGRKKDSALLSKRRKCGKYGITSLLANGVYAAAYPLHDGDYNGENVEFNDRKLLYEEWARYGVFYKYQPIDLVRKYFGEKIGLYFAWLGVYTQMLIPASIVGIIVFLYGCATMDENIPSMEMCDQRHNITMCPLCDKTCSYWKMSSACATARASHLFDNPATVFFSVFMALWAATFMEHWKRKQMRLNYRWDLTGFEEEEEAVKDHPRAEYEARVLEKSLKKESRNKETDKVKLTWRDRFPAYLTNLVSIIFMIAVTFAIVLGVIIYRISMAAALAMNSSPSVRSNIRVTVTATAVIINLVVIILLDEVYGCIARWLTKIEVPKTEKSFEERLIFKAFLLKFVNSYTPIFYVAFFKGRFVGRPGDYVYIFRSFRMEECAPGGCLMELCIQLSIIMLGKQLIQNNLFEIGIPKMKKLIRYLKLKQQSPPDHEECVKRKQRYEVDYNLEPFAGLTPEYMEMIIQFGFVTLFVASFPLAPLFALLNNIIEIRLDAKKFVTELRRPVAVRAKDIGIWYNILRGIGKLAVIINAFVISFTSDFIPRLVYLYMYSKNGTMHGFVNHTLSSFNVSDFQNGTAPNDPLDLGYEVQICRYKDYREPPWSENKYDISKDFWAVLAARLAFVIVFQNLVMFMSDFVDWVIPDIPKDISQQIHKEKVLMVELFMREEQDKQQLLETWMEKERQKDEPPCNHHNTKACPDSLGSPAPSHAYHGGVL
Experimental: as §1
(§2) Snapwell inserts containing ANO1(abc) or CFTR-expressing FRT cells were mounted in Ussing chambers (Physiological Instruments, San Diego, CA). The basolateral hemichamber was filled with buffer solution (in mM): 120 NaCl, 5 KCl, 1 MgCl2, 1 CaCl2, 10 D-glucose, 2.5 HEPES, and 25 NaHCO3 (pH 7.4). The apical hemichamber was filled with buffer solution (in mM): 60 NaCl, 60 Na-gluconate, 5 KCl, 1 MgCl2, 1 CaCl2, 10 D-glucose, 2.5 HEPES, and 25 NaHCO3 (pH 7.4). FRT cells were bathed for a 10 min stabilization period and gassed with 5% CO2 and 95% O2 at 37 °C. The apical membrane current was recorded with an EVC4000 Multi-Channel V/I Clamp (World Precision Instruments, Sarasota, FL, USA) and a PowerLab 4/35 (AD Instruments, Castle Hill, Australia).

human CFTR = target: T3, human CFTR (Homo sapiens, UniProt P13569); assay: Apical membrane current of CFTR in FRT cells expressing human CFTR; type: cell-based; details: apical membrane current, FRT cells expressing human CFTR, 20 μM forskolin, n = 5; read-out: CFTR chloride channel IC50
T3 construct: expressed in transfected cells; host or cells: Fisher rat thyroid (FRT) cells
T3 sequence (P13569 whole entry): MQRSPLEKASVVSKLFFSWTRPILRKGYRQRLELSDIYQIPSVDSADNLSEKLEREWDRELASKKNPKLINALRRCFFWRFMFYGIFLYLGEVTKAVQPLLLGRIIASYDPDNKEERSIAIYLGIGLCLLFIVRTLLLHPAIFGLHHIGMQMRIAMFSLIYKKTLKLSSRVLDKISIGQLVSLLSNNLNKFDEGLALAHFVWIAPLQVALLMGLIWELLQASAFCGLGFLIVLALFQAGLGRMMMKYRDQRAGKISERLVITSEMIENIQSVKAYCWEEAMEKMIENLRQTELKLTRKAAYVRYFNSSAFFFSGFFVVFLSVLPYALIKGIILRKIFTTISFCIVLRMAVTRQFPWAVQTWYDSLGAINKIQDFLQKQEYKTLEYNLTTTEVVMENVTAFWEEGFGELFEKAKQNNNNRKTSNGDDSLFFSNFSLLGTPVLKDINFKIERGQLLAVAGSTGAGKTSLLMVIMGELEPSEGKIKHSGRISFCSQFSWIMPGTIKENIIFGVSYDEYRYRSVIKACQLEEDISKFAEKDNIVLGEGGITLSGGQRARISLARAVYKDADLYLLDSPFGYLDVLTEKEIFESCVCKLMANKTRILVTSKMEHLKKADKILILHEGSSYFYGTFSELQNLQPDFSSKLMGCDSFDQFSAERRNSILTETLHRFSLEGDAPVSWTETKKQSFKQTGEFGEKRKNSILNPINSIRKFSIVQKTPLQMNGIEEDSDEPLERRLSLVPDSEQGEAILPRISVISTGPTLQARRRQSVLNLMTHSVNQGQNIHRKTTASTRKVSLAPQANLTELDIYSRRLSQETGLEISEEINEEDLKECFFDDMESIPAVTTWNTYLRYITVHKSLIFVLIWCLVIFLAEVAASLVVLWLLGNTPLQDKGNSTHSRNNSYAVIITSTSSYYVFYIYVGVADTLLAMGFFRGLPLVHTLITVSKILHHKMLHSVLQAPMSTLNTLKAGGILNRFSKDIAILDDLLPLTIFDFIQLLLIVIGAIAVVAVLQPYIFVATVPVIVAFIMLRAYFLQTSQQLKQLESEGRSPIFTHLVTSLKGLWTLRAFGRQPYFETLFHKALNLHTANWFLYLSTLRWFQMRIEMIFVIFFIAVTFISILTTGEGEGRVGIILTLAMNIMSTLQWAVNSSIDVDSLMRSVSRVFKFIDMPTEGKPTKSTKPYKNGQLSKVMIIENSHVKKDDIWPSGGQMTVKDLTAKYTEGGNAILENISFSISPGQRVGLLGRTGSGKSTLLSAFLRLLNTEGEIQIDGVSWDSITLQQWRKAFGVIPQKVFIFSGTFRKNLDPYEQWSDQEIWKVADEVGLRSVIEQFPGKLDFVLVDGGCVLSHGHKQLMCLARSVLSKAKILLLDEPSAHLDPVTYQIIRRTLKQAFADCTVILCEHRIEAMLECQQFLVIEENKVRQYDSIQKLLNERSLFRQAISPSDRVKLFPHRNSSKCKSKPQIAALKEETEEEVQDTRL
Text: […]. (C) Summary of dose-response (mean ± S.E., n = 5). […]. (F) Summary of dose−response (mean ± S.E., n = 6).
as §2

CCCCC1(C2CCCC2)Cc2cc(OCCCC(=O)O)c(Cl)c(Cl)c2C1=O (stereo not drawn) [DCPIB, 4-(2-butyl-6,7-dichlor-2-cyclopentylindan-1-on-5-yl) oxobutyric acid]
effect on cell viability (NIH-3T3 cells): significantly reduced cell viability
effect on calcium-activated chloride currents [1]: did not affect
effect on hERG (hERG): did not inhibit
effect on ATP-induced intracellular calcium increase [2]: significantly affected; also recorded: strongly blocked; also recorded: potently blocked; also recorded: potently inhibited
effect on hERG K+ channel activity (hERG K+ channel; 10 μM): significantly blocked
IC50 (hERG K+ channel; thallium flux, HEK293T cells expressing hERG, n = 6): 11.4 µM
effect on Eact-activated ANO1 chloride current (ANO1; 10 μM): increased
effect on Eact-activated ANO1 chloride current (ANO1; 100 μM): almost completely inhibited
IC50 (human CFTR): 71.7 µM
